US20020172972A1, “Use of a selectively inactivatable enzyme to digest contaminating nucleic acid” (President and Fellows of Harvard College, priority 2001, published 2002)

Biological target: T1, micrococcal nuclease (Staphylococcus aureus, UniProt P00644)
T1 construct: purchased Sigma N5386
Test: inactivation of micrococcal nuclease by EGTA, read out in the real time T7 DNA amplification reaction
Type: biochemical
Conditions: 2 mM EGTA added after incubation with 1 mM CaCl2
Excerpt: Micrococcal nuclease is obtained from Sigma (Sigma catalog number N5386 from Staphylococcus aureus, Foggi strain; 100-300 units/mg). EGTA, Ethylene glycol-bis(2-aminoethyl ether)-N,N,N′,N′-tetraacetic acid, is used as the micrococcal inactivating-agent and is obtained from Sigma (Sigma catalog number E8145. Tetrasodium salt). […]
DNA was quantitated by its ability to stimulate a real time DNA amplification reaction based on the T7 replication system, as described in PCT number WO 00/41524, published Jul. […] In this assay, the time required for the synthesized DNA to reach a designated threshold fluorescence value is proportional to the log of the input concentration of DNA over more than a 10,000,000-fold range of DNA concentration.

## O=C(O)CN(CCOCCOCCN(CC(=O)O)CC(=O)O)CC(=O)O [EGTA, Ethylene glycol-bis(2-aminoethyl ether)-N,N,N′,N′-tetraacetic acid]
  effect of EGTA on micrococcal nuclease activity: inactivated
